Earlier results as cited in patent US20060078955A1, “Method for retrieving delta9-THC from oral fluid” (Lin-Zhi International, priority 2004, published 2006).

Compound | aqueous solubility (Jarho et al.) | intrinsic aqueous solubility (hepta-substituted preparation)
CCCCCc1cc(O)c2c(c1)OC(C)(C)[C@@H]1CCC(C)=C[C@@H]21 [Δ^9-THC, Δ^9-tetrahydrocannabinol] | 1 to 2 µg/mL | –
sulfobutyl-ether-β-cyclodextrin [Captisol] | – | > 50 % w/v
